# Laboratory results: US6423753B1, “Use of colchinol derivatives as vascular damaging agents” (priority 1997, dated 2002)
# Where two headings read alike, the source gives them in different places.
# Columns and labels:
# [1] = system: CaNT tumour; conditions: for % decrease in vascular volume: administered at 50 mg/kg, fluorescent dye technique; for vascular-damaging effects: at Maximum Tolerated Dose (30 mg/kg), 30 mg/kg; for MED (mg/kg body weight): other tubulin-binding agents, by fluorescent dye technique; for MED mg/Kg body weight: minimum effective dose by the fluorescent dye technique
# [2] = Maximum tolerated dose (no deaths in three animals); assay type: in vivo; conditions: for MTD: mouse, in vivo, other tubulin-binding agents, read-out: MTD (mg/kg body weight); for MTD mg/Kg body weight: maximum tolerated dose, no deaths in three animals
# From the text: The phosphate compound was compared with the parent N-acetylcolchinol for the maximum tolerated dose (MTD) (no deaths in three animals), minimum effective dose (MED) measured by the fluorescent dye technique already described and the therapeutic window (MTD/MED).
# [3] = compared with parent N-acetylcolchinol
# [4] = system: Subcutaneous CaNT tumours; test: Activity against tumour vasculature measured by radioactive tracer (86RbCl extraction, relative blood flow); assay type: in vivo, mice; conditions: dose of 125 mg/kg intraperitoneally
# Description: Activity Against Tumour Vasculature Measured by Radioactive Tracer.
# Subcutaneous CaNT tumours were initiated by injecting 0.05 ml of a crude tumour cell suspension, approximately 10^6 cells, under the skin overlying the rear dorsum of 12-16 week-old mice. The animals were selected for treatment after approximately 3-4 weeks, when their tumours reached a geometric mean diameter of 5.5-6.5 mm. Compounds were dissolved in sterile saline and injected intraperitoneally in a volume of 0.1 ml per 10 g body weight. Tumour perfusion was measured 6 hours after intraperitoneal administration in tumour, kidney, liver, skin muscle, gut and brain by the ^86RbCI extraction technique (Sapirstein, Amer J Physiol, 193, 161-168, 1958). Tissue radioactivity measured 1 minute after an intravenous injection of ^86RbCI was used to calculate relative blood flow as a proportion of cardiac output (Hill and Denekamp, Brit J Radiol, 55, 905-913, 1982). Five animals were used in control and treated groups. Results were expressed as a percentage of the blood flow in the corresponding tissues in vehicle treated animals.
smiles,measurement,setting,value
"COc1cc2c(c(OC)c1OC)-c1cc([N+](=O)[O-])c(O)cc1C(NC(C)=O)CC2 (stereo not drawn) [Example 10, N-Acetyl-10-nitrocolchinol]",% decrease in vascular volume,[1],28%
"COc1cc2c(c(OC)c1OC)-c1ccc(O)cc1C(NS(C)(=O)=O)CC2 (stereo not drawn) [Example 5, N-Mesylcolchinol]",% decrease in vascular volume,[1],38%
"COc1cc2c(c(OC)c1OC)-c1ccc(O)cc1C(NC(=O)Nc1ccccc1)CC2 (stereo not drawn) [Example 4, N-(Phenylcarbamoyl) colchinol]",% decrease in vascular volume,[1],37%
"COC(=O)COc1ccc2c(c1)C(NC(C)=O)CCc1cc(OC)c(OC)c(OC)c1-2 (stereo not drawn) [Example 7, N-Acetyl-O-methoxycarbonylmethylcolchinol]",% decrease in vascular volume,[1],12%
"COc1cc2c(c(OC)c1OC)-c1ccc(OCC(=O)O)cc1C(NC(C)=O)CC2 (stereo not drawn) [Example 8, N-Acetyl-O-carboxymethylcolchinol]",% decrease in vascular volume,[1],49%
"CCNC1CCc2cc(OC)c(OC)c(OC)c2-c2ccc(O)cc21 (stereo not drawn) [Example 2, N-Ethylcolchinol]",% decrease in vascular volume,[1],38%
"COc1cc2c(c(OC)c1OC)-c1ccc(OC3CCCC3)cc1C(NC(C)=O)CC2 (stereo not drawn) [Example 9, N-Acetyl-O-cyclopentylcolchinol]",% decrease in vascular volume,[1],59%
"CC(=O)O[C@@]12CO[C@@H]1C[C@H](O)[C@@]1(C)C(=O)[C@H](O)C3=C(C)[C@@H](OC(=O)[C@H](O)[C@@H](NC(=O)OC(C)(C)C)c4ccccc4)C[C@@](O)([C@@H](OC(=O)c4ccccc4)[C@H]21)C3(C)C [Docetaxel, reference compound]",MTD,[2],30 mg/kg
same,vascular-damaging effects,[1],No effect
same,vascular-damaging effects,[1]; listed as docetaxel,no vascular-damaging effects
same,MED (mg/kg body weight),[1],> 30 mg/kg body weight
"COc1cc2c(c(OC)c1OC)-c1ccc(O)cc1C(NC(=O)OCc1ccccc1)CC2 (stereo not drawn) [Example 3, N-Benzyloxvcarbonylcolchinol]",% decrease in vascular volume,[1],43%
"COc1cc2c(c(OC)c1OC)-c1ccc(OP(=O)(O)O)cc1C(NC(C)=O)CC2 (stereo not drawn) [Example 1, N-Acetylcolchinol-O-phosphate]",MTD mg/Kg body weight,[2],750 mg/Kg body weight
same,solubility,[3],greater solubility
same,decrease in tumour blood flow,"[4]; measured 6 hours after administration, relative to vehicle treated animals",65%
same,"reduction in blood flow in skin, muscle, liver, kidney, gut or heart",[4]; normal tissues,no significant reduction
same,% decrease in vascular volume,[1],89%
same,MED mg/Kg body weight,[1],50 mg/Kg body weight
"COc1cc2c(c(OC)c1OC)-c1ccc(O)cc1C(NS(=O)(=O)N(C)C)CC2 (stereo not drawn) [Example 6, N-Dimethylsulphamoylcolchinol]",% decrease in vascular volume,[1],30%
"COc1cc2c(c(OC)c1OC)-c1ccc(OC)c(=O)cc1[C@@H](NC(C)=O)CC2 [Colchicine, reference compound]",MTD,[2],5 mg/kg
same,MED (mg/kg body weight),[1],2.5 mg/kg body weight
"COc1cc2c(c(OC)c1OC)-c1ccc(O)cc1[C@@H](NC(C)=O)CC2 [N-acetylcolchinol, reference compound]",MTD mg/Kg body weight,[2],125 mg/Kg body weight
same,% decrease in vascular volume,[1],78%
same,MED mg/Kg body weight,[1],30 mg/Kg body weight
